Tested on: mice
Assay: Maximum dose tolerated by mice
Method: GMDP (10, 5.0, 2.5 and 1.0 μg), ManLAM (50, 25, 12.5 and 6.25 μg), and MAPG (1.0, 0.5, 0.25 and 0.125 mg) were each suspended in saline and injected intravenously into eight week old female NOD mice. […] Groups of 5 mice were tested and the incidence of diabetes compared to 17 saline treated and 14 BCG treated control mice.

CC(=O)N[C@H]1[C@H](O[C@H]2[C@H](O[C@H](C)C(=O)N[C@@H](C)C(=O)N[C@H](CCC(=O)O)C(N)=O)[C@@H](NC(C)=O)C(O)O[C@@H]2CO)O[C@H](CO)[C@@H](O)[C@@H]1O (stereo partly drawn) [GMDP, N-acetylglucosaminyl-N-acetylmuramyl-L-alanyl-D-isoglutamine]
maximum dose tolerated by mice: 10 µL·g

Reference: patent US7083798B1, “Method of immunomodulatory treatment of insulin dependent diabetes mellitus using mycobacterial cell wall compositions” (Centenary Institute of Cancer Medicine and Cell Biology, priority 1996, dated 2006)
